Test results as given in patent US12209102B2, “Heterocyclic compounds and uses thereof” (Kumquat Biosciences Inc., priority 2022, dated 2025).

Columns and labels:
[1] = molecular target: T1, K-Ras G12D (Homo sapiens, UniProt P01116, G12D); test: HTRF resonance energy transfer assay, K-Ras G12D / SOS1 interaction; type: biochemical; settings: HTRF assay of Example 5; read-out: IC50 against K-Ras G12D
T1 construct: made in house; host or cells: E. coli BL21 (DE3)
Outline: (§1)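 Read-out: HTRF 665/620 nm ratio (excitation 337 nm) after roughly 10 min or longer incubation, used to derive IC50. Donor anti-GST-Eu on GST-K-Ras; acceptor anti-6His-XL665 on His-hSOS1. Duplicate dose series from 10 μM down to 0.01 μM.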

[2] = molecular target: T2, K-Ras G12S (Homo sapiens, UniProt P01116, G12S); test: HTRF resonance energy transfer assay, K-Ras G12S / SOS1 interaction; type: biochemical; settings: HTRF assay of Example 5; read-out: IC50 against K-Ras G12S
T2 construct: made in house; host or cells: E. coli BL21 (DE3)
Outline: as §1

[3] = system: GP2D cells; test: Ras cellular assay, growth of cells with K-Ras G12D mutation (CellTiter-Glo); type: cell-based; settings: cell growth, Example 9, G12D mutation, read-out: IC50 against GP2D cells
[4] = system: A549 cells; test: Ras cellular assay, growth of cells with K-Ras G12S mutation (CellTiter-Glo); type: cell-based; settings: Homo sapiens, cell growth, Example 9, G12S mutation, read-out: IC50 against A549 cells
Outline: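 A549 cells (K-Ras G12S) in RPMI-1640 with 10% heat-inactivated FBS, seeded e.g. 800 per well in standard or ultra-low-attachment 384-well plates, treated next day with a dilution series (e.g. 10-point, 3-fold). Viability by CellTiter-Glo luminescence about 6 days later; IC50 from four-parameter fit.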

[5] = system: SW620 cells; test: Ras cellular assay, growth of cells with K-Ras G12V mutation (CellTiter-Glo); type: cell-based; settings: Homo sapiens, SW-620; cell growth, Example 9, G12V mutation; read-out: IC50 against SW620 cells
Outline: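 SW620 (K-Ras G12V) cells, e.g. 800/well in RPMI-1640 with 10% heat-inactivated FBS on standard or ultra-low attachment plates, were dosed the day after plating with e.g. a 10-point 3-fold series. Viability by CellTiter-Glo luminescence about 6 days later; IC50 from four-parameter fit.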

[6] = molecular target: T3, K-Ras WT (Homo sapiens, UniProt P01116); test: HTRF resonance energy transfer assay, K-Ras WT / SOS1 interaction; type: biochemical; settings: HTRF assay of Example 5; read-out: IC50 against K-Ras WT
T3 construct: made in house; host or cells: E. coli BL21 (DE3)
Outline: as §1

[7] = molecular target: T4, K-Ras G12V (Homo sapiens, UniProt P01116, G12V); test: HTRF resonance energy transfer assay, K-Ras G12V / SOS1 interaction; type: biochemical; settings: HTRF assay of Example 5; read-out: IC50 against K-Ras G12V
T4 construct: made in house; host or cells: E. coli BL21 (DE3)
Outline: as §1

T2 sequence (P01116 1-188 isoform P01116-2 G12S): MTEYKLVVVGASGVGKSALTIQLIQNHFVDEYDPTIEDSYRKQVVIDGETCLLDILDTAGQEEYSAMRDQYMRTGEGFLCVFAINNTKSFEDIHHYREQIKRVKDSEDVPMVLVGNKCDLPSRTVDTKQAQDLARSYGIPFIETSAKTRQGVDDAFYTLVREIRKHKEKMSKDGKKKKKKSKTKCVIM
T4 sequence (P01116 1-188 isoform P01116-2 G12V): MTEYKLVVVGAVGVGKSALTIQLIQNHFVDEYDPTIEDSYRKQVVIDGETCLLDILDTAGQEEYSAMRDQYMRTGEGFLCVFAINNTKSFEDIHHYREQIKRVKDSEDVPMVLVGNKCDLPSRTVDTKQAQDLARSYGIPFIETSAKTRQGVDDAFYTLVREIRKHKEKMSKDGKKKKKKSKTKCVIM
T3 sequence (P01116 1-188 isoform P01116-2): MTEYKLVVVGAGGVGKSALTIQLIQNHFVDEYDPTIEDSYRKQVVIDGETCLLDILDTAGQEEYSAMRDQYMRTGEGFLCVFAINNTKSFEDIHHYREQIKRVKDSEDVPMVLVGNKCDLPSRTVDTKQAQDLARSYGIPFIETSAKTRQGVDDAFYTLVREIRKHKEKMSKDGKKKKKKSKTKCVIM
T1 sequence (P01116 1-188 isoform P01116-2 G12D): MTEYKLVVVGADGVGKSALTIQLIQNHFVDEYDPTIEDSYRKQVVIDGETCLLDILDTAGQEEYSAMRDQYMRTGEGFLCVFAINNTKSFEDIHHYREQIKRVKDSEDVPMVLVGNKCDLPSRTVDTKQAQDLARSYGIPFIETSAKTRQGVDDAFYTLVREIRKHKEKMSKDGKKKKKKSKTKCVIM

Row | IC50 [1] | IC50 [2] | IC50 [4] | IC50 [5] | IC50 [6] | IC50 [7] | SMILES | IC50 [3]
1 | < 100 nM | < 100 nM | < 5000 nM | < 5000 nM | < 100 nM | < 100 nM | CC(C(F)F)N1CCOc2c(Cl)c(-c3ccc(F)c4sc(N)c(C#N)c34)c(F)c3nc(OC[C@@]45CCCN4C[C@H](F)C5)nc1c23 (stereo partly drawn) [Compound 1000, 2-amino-4-(8-chloro-4-(1,1-difluoropropan-2-yl)-10-fluoro-2-(((2R,7aS)-2-fluorotetrahydro-1H-pyrrolizin-7a(5H)-yl)methoxy)-5,6-dihydro-4H-[1,4]oxazepino[5,6,7-de]quinazolin-9-yl)-7-fluorobenzo[b]thiophene-3-carbonitrile] | < 500 nM
2 | < 100 nM | < 100 nM | < 5000 nM | < 5000 nM | < 100 nM | < 100 nM | N#Cc1c(N)sc2c(F)ccc(-c3c(Cl)c4c5c(nc(OC[C@@]67CCCN6C[C@H](F)C7)nc5c3F)N(CC(F)F)[C@@H](CNC=O)CO4)c12 [Compound 1028, N-(((5S)-9-(2-amino-3-cyano-7-fluorobenzo[b]thiophen-4-yl)-8-chloro-4-(2,2-difluoroethyl)-10-fluoro-2-(((2R,7aS)-2-fluorotetrahydro-1H-pyrrolizin-7a(5H)-yl)methoxy)-5,6-dihydro-4H-[1,4]oxazepino[5,6,7-de]quinazolin-5-yl)methyl)formamide] | < 500 nM
3 | < 100 nM | < 100 nM | < 5000 nM | < 5000 nM | < 100 nM | < 100 nM | N#Cc1c(N)sc2c(F)ccc(-c3c(Cl)c4c5c(nc(OC[C@@]67CCCN6C[C@H](F)C7)nc5c3F)N(C3CC5(CCN(C=O)C5)C3)CCO4)c12 (stereo partly drawn) [Compound 698, 2-amino-4-(8-chloro-10-fluoro-2-(((2R,7aS)-2-fluorotetrahydro-1H-pyrrolizin-7a(5H)-yl)methoxy)-4-(6-formyl-6-azaspiro[3.4]octan-2-yl)-5,6-dihydro-4H-[1,4]oxazepino[5,6,7-de]quinazolin-9-yl)-7-fluorobenzo[b]thiophene-3-carbonitrile] | < 500 nM
4 | < 100 nM | < 100 nM | < 5000 nM | < 5000 nM | < 100 nM | < 100 nM | N#Cc1c(N)sc2c(F)ccc(-c3c(Cl)c4c5c(nc(OC[C@@]67CCCN6C[C@H](F)C7)nc5c3F)N(C3CCN(C=O)C3)CCO4)c12 (stereo partly drawn) [Compound 1052, 2-amino-4-(8-chloro-10-fluoro-2-(((2R,7aS)-2-fluorotetrahydro-1H-pyrrolizin-7a(5H)-yl)methoxy)-4-(1-formylpyrrolidin-3-yl)-5,6-dihydro-4H-[1,4]oxazepino[5,6,7-de]quinazolin-9-yl)-7-fluorobenzo[b]thiophene-3-carbonitrile] | < 500 nM
5 | < 100 nM | < 100 nM | < 5000 nM | < 5000 nM | < 100 nM | < 100 nM | N#Cc1c(N)sc2c(F)ccc(-c3c(Cl)c4c5c(nc(OC[C@@]67CCCN6C[C@H](F)C7)nc5c3F)N(C3CCN(C(=O)C(F)F)C3)CCO4)c12 (stereo partly drawn) [Compound 649, 2-amino-4-(8-chloro-4-(1-(2,2-difluoroacetyl)pyrrolidin-3-yl)-10-fluoro-2-(((2R,7aS)-2-fluorotetrahydro-1H-pyrrolizin-7a(5H)-yl)methoxy)-5,6-dihydro-4H-[1,4]oxazepino[5,6,7-de]quinazolin-9-yl)-7-fluorobenzo[b]thiophene-3-carbonitrile] | < 500 nM
6 | < 100 nM | < 100 nM | < 5000 nM | < 5000 nM | < 100 nM | < 100 nM | N#Cc1c(N)sc2c(F)ccc(-c3c(Cl)c4c5c(nc(OC[C@@]67CCCN6C[C@H](F)C7)nc5c3F)N(C3CCN(C(=O)C5COC5)C3)CCO4)c12 (stereo partly drawn) [Compound 757, 2-amino-4-(8-chloro-10-fluoro-2-(((2R,7aS)-2-fluorotetrahydro-1H-pyrrolizin-7a(5H)-yl)methoxy)-4-(1-(oxetane-3-carbonyl)pyrrolidin-3-yl)-5,6-dihydro-4H-[1,4]oxazepino[5,6,7-de]quinazolin-9-yl)-7-fluorobenzo[b]thiophene-3-carbonitrile] | < 500 nM
7 | < 100 nM | < 100 nM | < 5000 nM | < 5000 nM | < 100 nM | < 100 nM | COC1CN(C(=O)N2CCC(N3CCOc4c(Cl)c(-c5ccc(F)c6sc(N)c(C#N)c56)c(F)c5nc(OC[C@@]67CCCN6C[C@H](F)C7)nc3c45)C2)C1 (stereo partly drawn) [Compound 834, 2-amino-4-(8-chloro-10-fluoro-2-(((2R,7aS)-2-fluorotetrahydro-1H-pyrrolizin-7a(5H)-yl)methoxy)-4-(1-(3-methoxyazetidine-1-carbonyl)pyrrolidin-3-yl)-5,6-dihydro-4H-[1,4]oxazepino[5,6,7-de]quinazolin-9-yl)-7-fluorobenzo[b]thiophene-3-carbonitrile] | < 500 nM
8 | < 100 nM | < 100 nM | < 5000 nM | < 5000 nM | < 100 nM | < 100 nM | N#Cc1c(N)sc2c(F)ccc(-c3c(Cl)c4c5c(nc(OC[C@@]67CCCN6C[C@H](F)C7)nc5c3F)N(C3CCN(C(=O)C5C6COCC65)C3)CCO4)c12 (stereo partly drawn) [Compound 916, 4-(4-(1-(3-oxabicyclo[3.1.0]hexane-6-carbonyl)pyrrolidin-3-yl)-8-chloro-10-fluoro-2-(((2R,7aS)-2-fluorotetrahydro-1H-pyrrolizin-7a(5H)-yl)methoxy)-5,6-dihydro-4H-[1,4]oxazepino[5,6,7-de]quinazolin-9-yl)-2-amino-7-fluorobenzo[b]thiophene-3-carbonitrile] | < 500 nM
9 | < 100 nM | < 100 nM | < 5000 nM | < 5000 nM | < 100 nM | < 100 nM | N#Cc1c(N)sc2c(F)ccc(-c3c(Cl)c4c5c(nc(OC[C@@]67CCCN6C[C@H](F)C7)nc5c3F)N(CC(F)F)CCC(CO)O4)c12 (single isomer, unassigned) [Compound 1207] | < 500 nM
10 | < 100 nM | < 100 nM | < 5000 nM | < 5000 nM | < 100 nM | < 100 nM | CN(C)C1(CN2CCOc3c(Cl)c(-c4ccc(F)c5sc(N)c(C#N)c45)c(F)c4nc(OC[C@@]56CCCN5C[C@H](F)C6)nc2c34)CC1 [Compound 725, 2-amino-4-(8-chloro-4-((1-(dimethylamino)cyclopropyl)methyl)-10-fluoro-2-(((2R,7aS)-2-fluorotetrahydro-1H-pyrrolizin-7a(5H)-yl)methoxy)-5,6-dihydro-4H-[1,4]oxazepino[5,6,7-de]quinazolin-9-yl)-7-fluorobenzo[b]thiophene-3-carbonitrile] | < 500 nM
11 | < 100 nM | < 100 nM | < 5000 nM | < 5000 nM | < 100 nM | < 100 nM | CN(C)CCN1CCOc2c(Cl)c(-c3ccc(F)c4sc(N)c(C#N)c34)c(F)c3nc(OC[C@@]45CCCN4C[C@H](F)C5)nc1c23 [Compound 994, 2-amino-4-(8-chloro-4-(2-(dimethylamino)ethyl)-10-fluoro-2-(((2R,7aS)-2-fluorotetrahydro-1H-pyrrolizin-7a(5H)-yl)methoxy)-5,6-dihydro-4H-[1,4]oxazepino[5,6,7-de]quinazolin-9-yl)-7-fluorobenzo[b]thiophene-3-carbonitrile] | < 500 nM

Row | SMILES | IC50 [1] | IC50 [2] | IC50 [4] | IC50 [5] | IC50 [6] | IC50 [7] | IC50 [3]
12 | CN(CCN1CCOc2c(Cl)c(-c3ccc(F)c4sc(N)c(C#N)c34)c(F)c3nc(OC[C@@]45CCCN4C[C@H](F)C5)nc1c23)C(=O)[C@@H]1N[C@H]1C1CC1 [Compound 613, (2R,3S)-N-(2-(9-(2-amino-3-cyano-7-fluorobenzo[b]thiophen-4-yl)-8-chloro-10-fluoro-2-(((2R,7aS)-2-fluorotetrahydro-1H-pyrrolizin-7a(5H)-yl)methoxy)-5,6-dihydro-4H-[1,4]oxazepino[5,6,7-de]quinazolin-4-yl)ethyl)-3-cyclopropyl-N-methylaziridine-2-carboxamide] | < 100 nM | < 100 nM | < 5000 nM | < 5000 nM | < 100 nM | < 100 nM | < 500 nM
